Results reported in patent US9346809B2 (LEO PHARMA A/S, priority 2009, dated 2016).
Read-outs that look alike come from different tables or passages of the source.

Columns and labels:
Format in all cases: biochemical
[1] = molecular target: T1, JAK3 (catalytic domain, His-tag) (Homo sapiens, UniProt P52333); assay: JAK kinase assay (HTRF, phosphorylation of TK substrate-biotin), JAK3; conditions: ATP at Km (2 μM)
T1 construct: All four purified enzymes contain only the catalytic domain; His (N); purchased Carna Biosciences, Inc; host or cells: baculovirus expression system
T1 sequence (P52333 822-1111 limits assumed): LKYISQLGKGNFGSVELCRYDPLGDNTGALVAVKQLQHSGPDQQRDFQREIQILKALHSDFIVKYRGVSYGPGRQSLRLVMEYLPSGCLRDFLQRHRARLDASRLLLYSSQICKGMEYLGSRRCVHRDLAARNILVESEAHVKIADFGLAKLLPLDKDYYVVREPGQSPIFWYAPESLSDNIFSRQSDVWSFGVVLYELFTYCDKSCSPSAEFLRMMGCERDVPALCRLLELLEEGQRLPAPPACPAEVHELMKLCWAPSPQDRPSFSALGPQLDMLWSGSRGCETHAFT
How it was run: (§1)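 Compound was mixed with TK substrate-biotin (1 μM final), then kinase plus ATP at its Km was added and left 20-30 min at room temperature. Detection mix with EDTA, Streptavidin-XL665 and STK Ab Cryptate stopped the reaction; after overnight dark incubation, HTRF was read and EC50 derived.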

[2] = molecular target: T2, JAK1 (aa 850-1154, catalytic domain, GST-tag) (Homo sapiens, UniProt P23458); assay: JAK kinase assay (HTRF, phosphorylation of TK substrate-biotin), JAK1; conditions: ATP at Km (7 μM)
T2 construct: JAK1 (aa 850-1154) and TYK2 (aa 871-1187) are expressed with an N-terminally fused GST-tag; GST (N); purchased Carna Biosciences, Inc; host or cells: baculovirus expression system
T2 sequence (P23458 850-1154): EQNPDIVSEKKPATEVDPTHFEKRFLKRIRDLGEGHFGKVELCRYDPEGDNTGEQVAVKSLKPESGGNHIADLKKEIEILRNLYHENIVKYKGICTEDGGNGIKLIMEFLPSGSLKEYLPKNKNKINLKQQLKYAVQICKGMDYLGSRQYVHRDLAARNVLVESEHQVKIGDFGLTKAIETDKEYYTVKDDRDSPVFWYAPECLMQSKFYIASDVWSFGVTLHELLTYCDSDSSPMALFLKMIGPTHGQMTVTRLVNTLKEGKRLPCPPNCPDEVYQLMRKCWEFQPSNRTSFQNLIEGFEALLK
How it was run: as §1

[3] = molecular target: T3, TYK2 (aa 871-1187, catalytic domain, GST-tag) (Homo sapiens, UniProt P29597); assay: JAK kinase assay (HTRF, phosphorylation of TK substrate-biotin), TYK2; conditions: ATP at Km (13 μM)
T3 construct: JAK1 (aa 850-1154) and TYK2 (aa 871-1187) are expressed with an N-terminally fused GST-tag; GST (N); purchased Carna Biosciences, Inc; host or cells: baculovirus expression system
T3 sequence (P29597 871-1187): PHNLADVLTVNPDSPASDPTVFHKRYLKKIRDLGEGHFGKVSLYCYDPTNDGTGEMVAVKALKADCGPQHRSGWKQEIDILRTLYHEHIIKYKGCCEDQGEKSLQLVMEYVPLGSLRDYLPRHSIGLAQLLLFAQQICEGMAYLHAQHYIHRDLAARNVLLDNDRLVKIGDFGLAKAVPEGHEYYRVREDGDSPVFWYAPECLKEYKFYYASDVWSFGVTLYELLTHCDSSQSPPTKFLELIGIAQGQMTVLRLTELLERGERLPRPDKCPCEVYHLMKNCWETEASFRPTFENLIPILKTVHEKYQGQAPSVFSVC
How it was run: as §1

[4] = molecular target: T4, JAK2 (catalytic domain, His-tag) (Homo sapiens, UniProt O60674); assay: JAK kinase assay (HTRF, phosphorylation of TK substrate-biotin), JAK2; conditions: ATP at Km (4 μM)
T4 construct: All four purified enzymes contain only the catalytic domain; His (N); purchased Carna Biosciences, Inc; host or cells: baculovirus expression system
T4 sequence (O60674 849-1124 limits assumed): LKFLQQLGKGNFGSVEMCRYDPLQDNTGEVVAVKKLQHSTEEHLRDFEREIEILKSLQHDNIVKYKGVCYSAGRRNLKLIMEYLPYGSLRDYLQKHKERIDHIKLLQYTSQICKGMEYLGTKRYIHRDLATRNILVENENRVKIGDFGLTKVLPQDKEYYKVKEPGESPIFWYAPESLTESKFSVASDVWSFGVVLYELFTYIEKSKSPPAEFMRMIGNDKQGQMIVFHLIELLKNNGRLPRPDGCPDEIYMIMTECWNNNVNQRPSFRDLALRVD
How it was run: as §1

[5] = HTRF assay, read-out: JAK3 kinase inhibitory activity (EC50 indicator)
[6] = HTRF assay, read-out: JAK1 kinase inhibitory activity (EC50 indicator)
[7] = HTRF assay, read-out: TYK2 kinase inhibitory activity (EC50 indicator)
[8] = HTRF assay, read-out: JAK2 kinase inhibitory activity (EC50 indicator)
[9] = read-out: JAK3 kinase inhibitory activity (EC50 indicator)
[10] = read-out: JAK1 kinase inhibitory activity (EC50 indicator)
[11] = read-out: TYK2 kinase inhibitory activity (EC50 indicator)
[12] = read-out: JAK2 kinase inhibitory activity (EC50 indicator)

EC50 [1, 5] [nM]	EC50 [2, 6] [nM]	EC50 [3, 7] [nM]	EC50 [4, 8] [nM]	EC50 [1, 9] [nM]	EC50 [2, 10] [nM]	EC50 [3, 11] [nM]	EC50 [4, 12] [nM]	further results	Compound
< 100	< 100	100 to 500	< 100	–	–	–	–	–	COc1cc(S(N)(=O)=O)ccc1C(=O)N1CCN(c2ncnc3[nH]ccc23)CC12CC2 [Example 389, 3-Methoxy-4-[7-(7H-pyrrolo[2,3-d]pyrimidin-4-yl)-4,7-diaza-spiro[2.5]octane-4-carbonyl]-benzenesulfonamide]
–	–	–	–	–	–	–	–	EC50 ([1]; HTRF assay, read-out: JAK3 kinase inhibitory activity (EC50)): < 100 nM; EC50 ([2]; HTRF assay, read-out: JAK1 kinase inhibitory activity (EC50)): < 100 nM; EC50 ([3]; HTRF assay, read-out: TYK2 kinase inhibitory activity (EC50)): < 100 nM; EC50 ([4]; HTRF assay, read-out: JAK2 kinase inhibitory activity (EC50)): < 100 nM	CN(CCC#N)S(=O)(=O)N1CCN(c2ncnc3[nH]ccc23)CC12CC2 [Example 458, 7-(7H-Pyrrolo[2,3-d]pyrimidin-4-yl)-4,7-diaza-spiro[2.5]octane-4-sulfonic acid (2-cyano-ethyl)-methyl-amide]
< 100	< 100	< 100	< 100	–	–	–	–	–	NS(=O)(=O)c1ccc(C(=O)N2[C@@H]3CC[C@@H]2CN(c2ncnc4[nH]ccc24)C3)cc1 [Example 353, 4-[3-(7H-Pyrrolo[2,3-d]pyrimidin-4-yl)-3,8-diaza-bicyclo[3.2.1]octane-8-carbonyl]-benzenesulfonamide]
–	–	–	–	< 100	< 100	100 to 500	< 100	–	CC(=O)Nc1nc(N2CCN(C(=O)Cc3ccc(C#N)cc3)C3(CC3)C2)c2cc[nH]c2n1 [Example 93, N-(4-{4-[2-(4-Cyano-phenyl)-acetyl]-4,7-diaza-spiro[2.5]oct-7-yl}-7H-pyrrolo[2,3-d]pyrimidin-2-yl)-acetamide]
100 to 500	< 100	> 500	< 100	–	–	–	–	–	O=C(c1ccncc1)N1[C@@H]2CC[C@@H]1CN(c1ncnc3[nH]ccc13)C2 [Example 242, Pyridin-4-yl-[3-(7H-pyrrolo[2,3-d]pyrimidin-4-yl)-3,8-diaza-bicyclo[3.2.1]oct-8-yl]-methanone]
< 100	< 100	< 100	< 100	–	–	–	–	–	Cc1ccc(CNS(=O)(=O)c2ccc(C(=O)N3CCN(c4ncnc5[nH]ccc45)CC34CC4)cc2)o1 [Example 427, N-(5-Methyl-furan-2-ylmethyl)-4-[7-(7H-pyrrolo[2,3-d]pyrimidin-4-yl)-4,7-diaza-spiro[2.5]octane-4-carbonyl]-benzenesulfonamide]
< 100	100 to 500	> 500	< 100	–	–	–	–	–	Cc1c[nH]c2ncnc(N3CCN(C(=O)Cc4ccc(C#N)cc4)C4(CC4)C3)c12 [Example 334, 4-{2-[7-(5-Methyl-7H-pyrrolo[2,3-d]pyrimidin-4-yl)-4,7-diaza-spiro[2.5]oct-4-yl]-2-oxo-ethyl}-benzonitrile]
–	–	–	–	100 to 500	< 100	> 500	< 100	–	N#Cc1ccc(C(F)(F)C(=O)N2CCN(c3ncnc4[nH]ccc34)CC23CC3)cc1 [Example 64, 4-{1,1-Difluoro-2-oxo-2-[7-(7H-pyrrolo[2,3-d]pyrimidin-4-yl)-4,7-diaza-spiro[2.5]oct-4-yl]-ethyl}-benzonitrile]
100 to 500	< 100	> 500	< 100	–	–	–	–	–	N#CCCCC(=O)N1[C@@H]2CC[C@@H]1CN(c1ncnc3[nH]ccc13)C2 [Example 352, 5-Oxo-5-[3-(7H-pyrrolo[2,3-d]pyrimidin-4-yl)-3,8-diaza-bicyclo[3.2.1]oct-8-yl]-pentanenitrile]
–	–	–	–	> 500	100 to 500	> 500	100 to 500	–	O=C(c1cccnc1)N1[C@@H]2CC[C@H]1CN(c1ncnc3[nH]ccc13)C2 [Example 57, Pyridin-3-yl-[3-(7H-pyrrolo[2,3-d]pyrimidin-4-yl)-3,8-diazabicyclo[3.2.1]oct-8-yl]methanone]
–	–	–	–	> 500	> 500	> 500	100 to 500	–	O=C(Cc1cccnc1)N1[C@@H]2CC[C@@H]1CN(c1ncnc3[nH]ccc13)C2 [Example 172, 2-Pyridin-3-yl-1-[3-(7H-pyrrolo[2,3-d]pyrimidin-4-yl)-3,8-diaza-bicyclo[3.2.1]oct-8-yl]-ethanone]
–	–	–	–	100 to 500	< 100	> 500	< 100	–	NC(=O)c1ccc(C(=O)N2CCN(c3ncnc4[nH]ccc34)CC23CC3)cc1 [Example 49, 4-[7-(7H-Pyrrolo[2,3-d]pyrimidin-4-yl)-4,7-diazaspiro[2.5]octane-4-carbonyl]benzamide]
–	–	–	–	100 to 500	100 to 500	> 500	< 100	–	O=C([C@H]1CC[C@H](O)CC1)N1CCN(c2ncnc3[nH]ccc23)CC12CC2 [Example 158, (4-Hydroxy-cyclohexyl)-[7-(7H-pyrrolo[2,3-d]pyrimidin-4-yl)-4,7-diaza-spiro[2.5]oct-4-yl]-methanone]
< 100	< 100	> 500	< 100	–	–	–	–	–	Cc1ccc(S(N)(=O)=O)cc1C(=O)N1CCN(c2ncnc3[nH]ccc23)CC12CC2 [Example 388, 4-Methyl-3-[7-(7H-pyrrolo[2,3-d]pyrimidin-4-yl)-4,7-diaza-spiro[2.5]octane-4-carbonyl]-benzenesulfonamide]
–	–	–	–	< 100	< 100	< 100	< 100	–	Cc1csc(C(=O)N2CCN(c3ncnc4[nH]ccc34)CC23CC3)c1 [Example 62, (4-Methyl-thiophen-2-yl)-[7-(7H-pyrrolo[2,3-d]pyrimidin-4-yl)-4,7-diaza-spiro[2.5]oct-4-yl]-methanone]
–	–	–	–	100 to 500	100 to 500	> 500	< 100	–	CC1CN(C(=O)Cc2cccc(C#N)c2)C2(CC2)CN1c1ncnc2[nH]ccc12 (stereo not shown) [Example 146, 3-{2-[6-Methyl-7-(7H-pyrrolo[2,3-d]pyrimidin-4-yl)-4,7-diaza-spiro[2.5]oct-4-yl]-2-oxo-ethyl}-benzonitrile]
> 500	< 100	100 to 500	< 100	–	–	–	–	–	CS(=O)(=O)c1ccc(C(=O)N2CCN(c3ncnc4[nH]ccc34)CC23CC3)c(Cl)c1 [Example 382, (2-Chloro-4-methanesulfonyl-phenyl)-[7-(7H-pyrrolo[2,3-d]pyrimidin-4-yl)-4,7-diaza-spiro[2.5]oct-4-yl]-methanone]
< 100	< 100	< 100	< 100	–	–	–	–	–	Cc1nccnc1C(=O)N1CCN(c2ncnc3[nH]ccc23)CC12CC2 [Example 417, (3-Methyl-pyrazin-2-yl)-[7-(7H-pyrrolo[2,3-d]pyrimidin-4-yl)-4,7-diaza-spiro[2.5]oct-4-yl]-methanone]
–	–	–	–	< 100	< 100	> 500	< 100	–	Cn1c(C(=O)N2C3CCC2CN(c2ncnc4[nH]ccc24)C3)ccc1S(N)(=O)=O [Example 141, 1-Methyl-5-[3-(7H-pyrrolo[2,3-d]pyrimidin-4-yl)-3,8-diaza-bicyclo[3.2.1]octane-8-carbonyl]-1H-pyrrole-2-sulfonic acid amide]
< 100	< 100	< 100	< 100	–	–	–	–	–	O=C(c1csc2ccccc12)N1CCN(c2ncnc3[nH]ccc23)CC12CC2 [Example 214, Benzo[b]thiophen-3-yl-[7-(7H-pyrrolo[2,3-d]pyrimidin-4-yl)-4,7-diaza-spiro[2.5]oct-4-yl]-methanone]
> 500	> 500	> 500	> 500	–	–	–	–	–	Cc1c[nH]c2ncnc(N3CCN(C(=O)Cc4cccc(C#N)c4)C4(CC4)C3)c12 [Example 333, 3-{2-[7-(5-Methyl-7H-pyrrolo[2,3-d]pyrimidin-4-yl)-4,7-diaza-spiro[2.5]oct-4-yl]-2-oxo-ethyl}-benzonitrile]
–	–	–	–	< 100	< 100	< 100	< 100	–	NS(=O)(=O)c1ccc(C(=O)N2CCN(c3ncnc4[nH]ccc34)CC23CC3)o1 [Example 198, 5-[7-(7H-Pyrrolo[2,3-d]pyrimidin-4-yl)-4,7-diaza-spiro[2.5]octane-4-carbonyl]-furan-2-sulfonic acid amide]
